Experiments:
THP-1 = experiment: Antiinflammatory activity in human THP1 cells assessed as inhibition of LPS-induced TNFalpha production by PLAP reporter assay; assay type: functional, cell-based
[1] = Oral bioavailability in mouse; assay type: ADME, organism-based; conditions: in vivo
Mus musculus [2] = experiment: Antiarthritic activity in po dosed BALB/c mouse collagen antibody induced arthritis model assessed as inhibition of increase of arthritis score administered qd for 2 days after collagen antibody challenge measured after 2 days; assay type: functional; conditions: 48 h
[3] = Toxicity in po dosed BALB/c mouse collagen antibody induced arthritis model assessed as tolerated dose; assay type: organism-based; conditions: in vivo
Mus musculus [4] = species on record: Mus musculus; experiment: Ratio of ED50 for BALB/c mouse collagen antibody induced arthritis model to tolerated dose for BALB/c mouse collagen antibody induced arthritis model; assay type: functional
[5] = Antiinflammatory activity in human B164 cells assessed as inhibition of LPS-induced Actin production by PLAP reporter assay; assay type: functional

IC50 (THP-1)	SMILES	bioavailability [1]	ED50 (Mus musculus [2])	MTD [3]	Ratio (Mus musculus [4])	Activity [5]
0.026 µM	CCCNc1cc(O)c2c(c1)/C=C/C[C@H](O)[C@H](O)C(=O)/C=C\[C@@H](C)[C@H](C)OC2=O	–	–	–	–	–
0.351 µM	C[C@@H]1/C=C\C(=O)[C@@H](O)[C@@H](O)C/C=C/c2cc(N3CCNCC3)cc(O)c2C(=O)O[C@H]1C	–	–	–	–	–
1.25 µM	C[C@@H]1/C=C\C(=O)[C@@H](O)[C@@H](O)C/C=C/c2cc(NCc3ccccc3)cc(O)c2C(=O)O[C@H]1C	–	–	–	–	–
0.36 µM	C[C@@H]1/C=C\C(=O)[C@@H](O)[C@@H](O)C/C=C/c2cc(N)cc(O)c2C(=O)O[C@H]1C	49%	–	–	–	–
0.129 µM	C[C@@H]1/C=C\C(=O)[C@@H](O)[C@@H](O)C/C=C/c2cc(N3CCOCC3)cc(O)c2C(=O)O[C@H]1C	48%	–	–	–	–
0.071 µM	C[C@@H]1/C=C\C(=O)[C@@H](O)[C@@H](O)C/C=C/c2cc(NCCO)cc(O)c2C(=O)O[C@H]1C	–	–	–	–	–
2.07 µM	CCN(CC)c1cc(O)c2c(c1)/C=C/C[C@H](O)[C@H](O)C(=O)/C=C\[C@@H](C)[C@H](C)OC2=O	–	–	–	–	–
–	COc1ccc2c(c1)c(CC(=O)O)c(C)n2C(=O)c1ccc(Cl)cc1 [INDOMETHACIN]	–	1 mg/kg	3 mg/kg	3	–
–	C[C@]12C=CC(=O)C=C1CC[C@@H]1[C@@H]2[C@@H](O)C[C@@]2(C)[C@H]1CC[C@]2(O)C(=O)CO [PREDNISOLONE]	–	3 mg/kg	10 mg/kg	3	–

SMILES	IC50 (THP-1)	bioavailability [1]	ED50 (Mus musculus [2])	MTD [3]	Ratio (Mus musculus [4])	Activity [5]
C[C@@H]1/C=C\C(=O)[C@@H](O)[C@@H](O)C/C=C/c2cc(N(C)C)cc(O)c2C(=O)O[C@H]1C	0.437 µM	21%	15 mg/kg	60 mg/kg	4	–
Cc1nc2c3c(c(O)cc2n1C)C(=O)O[C@@H](C)[C@H](C)/C=C\C(=O)[C@@H](O)[C@@H](O)C/C=C/3	0.108 µM	–	10 mg/kg	< 10 mg/kg	1	>10 µM
CNc1cc(O)c2c(c1)/C=C/C[C@H](O)[C@H](O)C(=O)/C=C\[C@@H](C)[C@H](C)OC2=O	0.085 µM	29%	5 mg/kg	> 30 mg/kg	6	–
CCn1cnc2c3c(c(O)cc21)C(=O)O[C@@H](C)[C@H](C)/C=C\C(=O)[C@@H](O)[C@@H](O)C/C=C/3	0.043 µM	–	10 mg/kg	< 10 mg/kg	1	>10 µM
C[C@@H]1/C=C\C(=O)[C@@H](O)[C@@H](O)C/C=C/c2c(c(O)cc3c2ncn3C)C(=O)O[C@H]1C	0.023 µM	49%	5 mg/kg	< 5 mg/kg	1	>10 µM
CCNc1cc(O)c2c(c1)/C=C/C[C@H](O)[C@H](O)C(=O)/C=C\[C@@H](C)[C@H](C)OC2=O [E-6201]	0.056 µM	12%	5 mg/kg	> 30 mg/kg	3	–

From ChEMBL document CHEMBL1157112, “Discovery of anti-inflammatory clinical candidate E6201, inspired from resorcylic lactone LL-Z1640-2, III” (Bioorg Med Chem Lett, 2010)
